Reference: patent publication US20190388354A1, “IMPROVED COMPOSITIONS AND METHODS FOR REDUCING OVERDOSE” (priority 2017, published 2019)
“And” between values parts separate entries of the source, which are not always exact repeats. Equal entries are not always repeated.

Test: Effect of different alkalinizing agents on the pH of an acidic solution
Format: physicochemical
Method: Various alkalinizing agents were added to a solution of 0.1 N HCl with a starting pH of 2.0 and the pH of the solution was tested at different time points.

## Cl.N=C(N)NCCC[C@H](N)C(=O)O [Arginine HCl, L-arginine-HCl]
100 mg Arginine HCl in 200 ml, time: 10,20,30,40,50,60 min
  pH of 0.1N HCl solution (starting pH 2.0): 2.20

## CNC[C@H](O)[C@@H](O)[C@H](O)[C@H](O)CO [Meglumine, meglumine]
120 mg in 200 ml, time: 10,20,30,40,50,60 min
  pH of 0.1N HCl solution (starting pH 2.0): 2.16

## CC(=O)[O-].[Na+] [Sodium Acetate, sodium acetate]
200 mg in 200 ml, time: 10,20,30,40,50,60 min
  pH of 0.1N HCl solution (starting pH 2.0): 4.96 and 5.08 and 5.21 and 5.34 and 4.73

## O=C([O-])CC(O)(CC(=O)[O-])C(=O)[O-].[Na+].[Na+].[Na+] [Sodium Citrate, sodium citrate]
930 mg in 200 ml, time: 10,20,30,40,50,60 min
  pH of 0.1N HCl solution (starting pH 2.0): 5.53

## O=C([O-])[O-].[Ca+2] [calcium carbonate]
240 mg/320 ml (0.75 mg/ml), 60 minute timecourse
  effect on the pH of the solution: rapidly raised the pH of the solution to neutral or higher
120-140 mg/200 ml, 60 minute timecourse
  effect on the pH of the solution: raise the pH of the solution to near neutral or neutral

## O=C([O-])[O-].[Mg+2] [magnesium carbonate]
80 mg in 200 ml, 30 minute timecourse
  pH reached: above 9
100 mg Magnesium Carbonate in 200 ml, time: 10,20,30,40,50,60 min
  pH of 0.1N HCl solution (starting pH 2.0): 3.05

## [Mg+2].[OH-].[OH-] [magnesium hydroxide]
60 mg in 200 ml, time by row: r6-r15=1-10 min, r16-r20=20,30,40,50,60 min
  pH of 0.1N HCl solution (starting pH 2.0): 2.96 and 2.99 and 3.00 and 3.01 and 2.50 and 2.66 and 2.83 and 2.92
60 mg per 500 mL, time by row: r8-r18=0-10 min, r19-r23=20,30,40,50,60 min
  pH of 0.1N HCl solution (starting pH 2.0): 2.12 and 2.17 and 2.18 and 2.19 and 2.01 and 2.06
71 mg/200 ml, 81 mg/200 ml and 100 mg/200 ml, 60 minute timecourse
  effect on the pH of the solution: raised the pH of the solution to neutral or higher
100 mg per 500 mL, time by row: r8-r18=0-10 min, r19-r23=20,30,40,50,60 min
  pH of 0.1N HCl solution (starting pH 2.0): 2.21 and 2.33 and 2.38 and 2.40 and 2.41 and 2.03 and 2.10
100 mg/320 ml, 180 mg/500 ml, 120 mg/320 ml, 200 mg/500 ml and 240 mg/500 ml, 60 minute timecourse
  effect on the pH of the solution: rapidly raised the pH of the solution to neutral or higher

## [O]=[Mg] [magnesium oxide]
160 mg/320 ml (0.5 mg/ml), 60 minute timecourse
  effect on the pH of the solution: rapidly raised the pH of the solution to neutral or higher
80-120 mg/200 ml powder and 80 mg granular form in 200 ml, 60 minute timecourse
  effect on the pH of the solution: rapidly raise the pH of the solution to neutral or higher

## O=C([O-])O.[Na+] [sodium bicarbonate]
20 mg per 320 mL, time by row: r6-r16=0-10 min, r17-r21=20,30,40,50,60 min
  pH of 0.1N HCl solution (starting pH 2.0): 2.05 and 2.02 and 2.04
20 mg/320 ml and 40 mg/320 ml, 60 minute timecourse
  effect on the pH of the solution: neither amount tested was sufficient to raise the pH to neutral or higher
40 mg per 320 mL, time by row: r6-r16=0-10 min, r17-r21=20,30,40,50,60 min
  pH of 0.1N HCl solution (starting pH 2.0): 2.08 and 2.09 and 2.05
50 mg in 200 ml, time by row: r6-r10=0,10,20,30,40 min
  pH of 0.1N HCl solution (starting pH 2.0): 1.72 and 1.71
100 mg in 200 ml, time by row: r6-r10=0,10,20,30,40 min
  pH of 0.1N HCl solution (starting pH 2.0): 1.75 and 1.71 and 1.76
50 and 100 mg/200 ml, 40 minute timecourse
  effect on the pH of the solution: neither tested amount was sufficient to raise the pH

## O=C([O-])[O-].[Na+].[Na+] [sodium carbonate]
11.13 mg in 200 ml, time by row: r7-r12=0-5 min, r13-r16=10,15,20,60 min
  pH of 0.1N HCl solution (starting pH 2.0): 2.80 and 2.66
30.11 mg in 200 ml, time by row: r7-r12=0-5 min, r13-r16=10,15,20,60 min
  pH of 0.1N HCl solution (starting pH 2.0): 3.25 and 3.26 and 3.27 and 2.57 and 3.21 and 3.24
81.68 mg in 200 ml, 60 minute timecourse
  effect on the pH of the solution: raise the pH of the 200 ml solution to above neutral

## CCCCCCCCCCCCOS(=O)(=O)[O-].[Na+] [sodium lauryl sulfate]
10 mg (10.22 mg actual) in 200 ml, time by row: r6-r16=0-10 min, r17=20, r18=30 min, sulfate
  pH of 0.1N HCl solution (starting pH 2.0): 2.67 and 2.68
10 mg in 200 ml, 30 minute timecourse
  effect on the pH of the solution: insufficient to substantially raise the pH
